From patent US5356886A, “Antiviral phosphono-alken derivatives of purines” (Beecham Group p.l.c., priority 1990, dated 1994)
In brackets after ≈: the same amount, converted by molar mass.

How the values were obtained:
Format in all cases: cell-based
[1] = Cytotoxicity for the cell monolayers in the FIV test; details: cat, crandell feline kidney cells, no cytotoxicity noted with concentrations up to this value, read-out: cytotoxicity for the cell monolayers
Protocol: (§1) Drug stocks were diluted to the appropriate concentration, in medium (e.g. 10 mg/ml to 200 μg/ml). 150 μl of each drug was dispersed in triplicate, across the top row of a microtitre plate (150 μl of media for virus and cell control, vc and cc). 100 μl of medium was dispersed into all other wells. The wells were serially diluted moving down the plate, removing 50 μl from each well and transferring to the next row. 50 μl was discarded from the bottom wells.
(§2) Trypsinisation was carried out from a confluent cell monolayer of Crandell Feline Kidney cells, in 10% trypsin, followed by resuspension in media at 1×10^6 per ml, ensuring that a single cell suspension is achieved. (Media: 90% 1×RPMI, 25 mM hepes buffer; 10% Foetal calf serum; 2% Glutamine; 2% penecillin/streptomycin.)
(§3) FIV Glasgow 8 virus was diluted to 4× the required virus challenge in medium (40 TCID50 /ml). The virus infected medium was mixed with an equal volume of cell suspension, 100 μl of which was aliquoted into each well of the drug plate, except cell control. 100 μl of cell suspension at 5×10^4 per ml was added to the latter. This gives a final cell concentration of 2.5×10^4 per ml, and drug range 100-0.03 μg/ml. The plates were incubated at 37° C., 5% CO2 in an air humidified incabator for 11-14 days. The cells were fixed by immersing the plates in formoli saline (10% formaldehyde; 10% 1.5M NaCl; 80% water) for 1 hour minimum. The cells were stained with 10% crystal violet for 15 minutes.
(§4) The assay was scored by looking for presence of syncitia and, virus induced cytopathic effect in the cell monolayers, under a microscope. Results are given as the minimum concentration of drug inhibiting syncitial production, minimum inhibitory concentration, MIC.

Visna Virus = assay: CPE Inhibition Test (Established Monolayer) for Lentiviruses, visna virus (strain K184) in sheep choroid plexus cells; details: Visna-maedi virus; visna virus strain K184, SCP cells; read-out: MIC (minimum concentration giving complete protection of the cell monolayers)
Protocol: 3×10^4 sheep choroid plexus (SCP) cells were plated into individual wells of a 96 well microtitre plate in 100 μl of Eagle's MEM with Hanks' salts containing 10% heat inactivated foetal calf serum (FCS). When monolayers had become established (after 1 or 2 days growth) they were washed with 200 μl of maintenance medium (Eagle's MEM with Hanks' salts containing 0.5% FCS) and infected with 100 μl of visna virus (strain K184) in maintenance medium (30 TCID50/ml). Test samples were diluted with maintenance medium in further 96 well microtitre plates over the range 200-0.06 μg/ml by 3-fold dilution steps. 100 μl of the diluted samples was then transferred directly onto virus-infected monolayers (final concentration range therefore 100-0.03 μg/ml) and […] containing 5% CO2 until virus-induced CPE was maximal in the untreated virus-infected controls (usually 12-14 days). The plates were fixed with formal saline and stained with crystal violet. Virus-induced CPE was then scored microscopically and the minimum concentration of sample giving complete protection of the cell monolayers (MIC) determined.

HIV [2] = assay: HIV Suppression test, viral RNA (nucleic acid hybridisation) in peripheral human lymphocytes; details: Human immunodeficiency virus 1, Lymphocyte, 96 h; Concn. 0.1 μM; read-out: % Inhibition on Day 4 after infection, Viral RNA
Protocol: (§5) Peripheral human lymphocytes were prepared, cultivated, and harvested as above. Following the determination of the lymphocyte surface markers, unstimulated and mitogen stimulated cells were combined in a ratio of 1:2.
(§6) Under safety conditions these cells are infected with a standard preparation of HIV. The cells are sedimented by centrifugation. The supernatant was discarded and cells were resuspended in the HIV inoculum.
(§7) This inoculum is a liquid suspension of HIV-1 strain virus, pretested and adjusted to a titer that results in a synthesis of viral core protein p24 of >100 ng/ml at day four following infection of human lymphocytes according to the protocol.
(§8) 3×10^8 lymphocytes were resuspended in 1 ml HIV inoculum and incubated at 37° C. for 60 minutes. Subsequently, the cells were washed two times with 50 ml of culture medium and resuspended in culture medium containing 10 units/ml of human recombinant interleukin-2 to yield a cell concentration of 2×10^6 cells/ml. 100 μof this cell suspension was added to each well of the microtiter plates containing the diluted solutions of the compounds. The microtiter plates were cultivated in an incubator with a humidified atmosphere and 5% CO2 at 37° C.
(§9) Accordingly, a fraction of lymphocytes was mock-infected with the same virus preparation that was heat inactivated (30 minutes at 56° C.) prior to infection.
(§10) On each of the days 2,3 and 4 post infection one of the microtiter plates which had been established in triplicate was prepared for determination of viral replication. Viral RNA is determined within the cells whereas the viral core protein p24 was detected in the supernatant of the lymphocyte culture.
(§11) Accordingly, 150 μl of supernatant were removed from each well and transferred to the well of a microtiter plate containing 50 μl/well of SDS (sodium dodecylsulfate, 0.08%). These plates were stored frozen. 50 μl of stop solution (1% SDS, 20 mM sodium acetate, pH 5.0, and 200 μg/ml heparin) were added to the cells remaining in each well. The plates were stored frozen.
(§12) The concentration of p24 synthesized by the HIV infected cells was determined by means of a sandwich ELISA, while the concentration of viral RNA was quantitated by nucleic acid hybridisation, using a ^32 P-labelled DNA probe for the gag/pol region of the viral genome. Absolute levels of viral antigen and RNA in drug treated samples were compared with untreated, virus-infected controls and the percentage inhibition calculated.

HIV [3] = assay: HIV Suppression test, viral antigen (core protein p24, sandwich ELISA) in peripheral human lymphocytes; details: Human immunodeficiency virus 1, Lymphocyte, 96 h; Concn. 0.1 μM; read-out: % Inhibition on Day 4 after infection, Viral Antigen
Protocol: as §5, §6, §7, §8, §9, §10, §11, §12

FIV = assay: Test for Feline Immunodeficiency Virus (FIV Glasgow 8) in Crandell Feline Kidney cells; details: read-out: MIC (minimum concentration of drug inhibiting syncitial production)
Protocol: as §1, §2, §3, §4

Question: With `Nc1nc2c(ncn2OCC/C=C/P(=O)(O)O)c(=O)[nH]1` [Example 1, (E)-9-(4-phosphonobut-3-enyloxy)guanine] as the compound, how does the MCC [1] read?
Answer: > 100 µg/mL

Question: What about the MIC (Visna Virus) of the same compound?
Answer: < 0.003 µg/mL

Question: What about the inhibition at 0.1 µM (HIV [2]) of the same compound?
Answer: 93%

Question: What about the inhibition at 0.1 µM (HIV [3]) of the same compound?
Answer: 93%

Question: What about the MIC (FIV) of the same compound?
Answer: 0.01 µg/mL (≈ 0.0332 µM)
